Laboratory results reported in ChEMBL document CHEMBL1134151, “Solution-phase, parallel synthesis and pharmacological evaluation of acylguanidine derivatives as potential sodium channel blockers” (Bioorg Med Chem Lett, 2001).

Assays:
[1] = biological target: Sodium channel protein type 5 subunit alpha (Homo sapiens, UniProt Q14524); experiment: Inhibition of sodium channel blockade in CHO cells expressing human cardiac (hHI) sodium channel; assay type: cell-based
[2] = biological target: Sodium channel protein type 2 subunit alpha (Homo sapiens, UniProt Q99250); experiment: Inhibition of sodium channel blockade in CHO cells expressing neuronal mammalian type IIA (CNaIIA) sodium channel; assay type: cell-based
Mus musculus = experiment: In vivo anticonvulsant activity tested as percent inhibition of audiogenic antiseizure in DBA/2 mice at a dose of 20 mg/kg, ip; assay type: functional; conditions: route intraperitoneal
[3] = pKa value determined; assay type: physicochemical
[4] = Partition coefficient (logD); assay type: physicochemical; conditions: octanol/water

Sodium channel protein type 5 subunit alpha, sequence (Q14524 whole entry): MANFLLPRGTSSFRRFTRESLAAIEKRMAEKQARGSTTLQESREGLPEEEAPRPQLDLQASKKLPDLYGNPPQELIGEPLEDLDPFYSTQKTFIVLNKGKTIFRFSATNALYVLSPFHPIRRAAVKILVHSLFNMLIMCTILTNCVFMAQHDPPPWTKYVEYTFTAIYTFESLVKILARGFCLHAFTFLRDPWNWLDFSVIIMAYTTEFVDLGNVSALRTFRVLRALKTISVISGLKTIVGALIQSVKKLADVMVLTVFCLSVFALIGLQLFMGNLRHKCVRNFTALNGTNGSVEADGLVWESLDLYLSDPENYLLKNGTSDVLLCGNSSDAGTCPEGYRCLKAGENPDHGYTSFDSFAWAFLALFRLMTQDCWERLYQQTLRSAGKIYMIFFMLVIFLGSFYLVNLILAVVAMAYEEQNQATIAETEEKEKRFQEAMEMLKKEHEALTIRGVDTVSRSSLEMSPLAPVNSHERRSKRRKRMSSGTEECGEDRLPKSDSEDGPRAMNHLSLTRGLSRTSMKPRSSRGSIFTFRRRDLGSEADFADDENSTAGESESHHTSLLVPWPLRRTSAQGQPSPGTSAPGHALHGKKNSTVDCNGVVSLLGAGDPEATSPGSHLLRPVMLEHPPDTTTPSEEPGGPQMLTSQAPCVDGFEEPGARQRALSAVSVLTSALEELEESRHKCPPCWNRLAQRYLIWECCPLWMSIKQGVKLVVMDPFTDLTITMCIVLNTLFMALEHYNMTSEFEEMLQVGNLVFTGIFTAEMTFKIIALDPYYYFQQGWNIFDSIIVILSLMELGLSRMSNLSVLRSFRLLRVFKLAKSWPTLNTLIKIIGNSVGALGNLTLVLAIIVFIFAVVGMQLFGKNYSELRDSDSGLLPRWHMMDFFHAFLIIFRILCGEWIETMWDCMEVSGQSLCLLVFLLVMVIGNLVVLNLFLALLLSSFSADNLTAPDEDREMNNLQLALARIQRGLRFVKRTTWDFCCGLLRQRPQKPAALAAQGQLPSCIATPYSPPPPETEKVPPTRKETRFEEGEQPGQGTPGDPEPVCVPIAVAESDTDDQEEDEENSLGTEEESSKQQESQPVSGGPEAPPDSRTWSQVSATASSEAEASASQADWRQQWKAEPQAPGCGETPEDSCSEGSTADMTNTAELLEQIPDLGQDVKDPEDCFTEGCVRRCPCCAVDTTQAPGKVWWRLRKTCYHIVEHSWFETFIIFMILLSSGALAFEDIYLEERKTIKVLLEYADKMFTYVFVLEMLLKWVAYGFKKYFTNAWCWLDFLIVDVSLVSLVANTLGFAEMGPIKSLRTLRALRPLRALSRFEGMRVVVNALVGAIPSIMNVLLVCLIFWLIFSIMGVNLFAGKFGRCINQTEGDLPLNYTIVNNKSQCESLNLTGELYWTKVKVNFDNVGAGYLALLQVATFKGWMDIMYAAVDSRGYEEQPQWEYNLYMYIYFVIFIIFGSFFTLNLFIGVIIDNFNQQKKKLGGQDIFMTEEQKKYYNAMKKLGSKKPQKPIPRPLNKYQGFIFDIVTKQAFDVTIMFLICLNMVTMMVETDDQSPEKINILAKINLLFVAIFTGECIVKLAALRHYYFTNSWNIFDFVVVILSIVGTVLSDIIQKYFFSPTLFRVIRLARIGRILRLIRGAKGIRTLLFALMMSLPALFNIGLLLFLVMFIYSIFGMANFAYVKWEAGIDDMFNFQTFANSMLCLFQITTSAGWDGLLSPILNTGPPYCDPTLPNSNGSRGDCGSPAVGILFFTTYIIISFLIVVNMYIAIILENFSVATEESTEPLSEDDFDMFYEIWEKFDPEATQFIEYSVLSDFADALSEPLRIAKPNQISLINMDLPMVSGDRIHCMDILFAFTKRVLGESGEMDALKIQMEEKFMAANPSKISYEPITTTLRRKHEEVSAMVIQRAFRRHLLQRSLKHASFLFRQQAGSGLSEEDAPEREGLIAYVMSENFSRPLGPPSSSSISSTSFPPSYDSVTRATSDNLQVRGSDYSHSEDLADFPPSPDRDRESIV
Sodium channel protein type 2 subunit alpha, sequence (Q99250 whole entry): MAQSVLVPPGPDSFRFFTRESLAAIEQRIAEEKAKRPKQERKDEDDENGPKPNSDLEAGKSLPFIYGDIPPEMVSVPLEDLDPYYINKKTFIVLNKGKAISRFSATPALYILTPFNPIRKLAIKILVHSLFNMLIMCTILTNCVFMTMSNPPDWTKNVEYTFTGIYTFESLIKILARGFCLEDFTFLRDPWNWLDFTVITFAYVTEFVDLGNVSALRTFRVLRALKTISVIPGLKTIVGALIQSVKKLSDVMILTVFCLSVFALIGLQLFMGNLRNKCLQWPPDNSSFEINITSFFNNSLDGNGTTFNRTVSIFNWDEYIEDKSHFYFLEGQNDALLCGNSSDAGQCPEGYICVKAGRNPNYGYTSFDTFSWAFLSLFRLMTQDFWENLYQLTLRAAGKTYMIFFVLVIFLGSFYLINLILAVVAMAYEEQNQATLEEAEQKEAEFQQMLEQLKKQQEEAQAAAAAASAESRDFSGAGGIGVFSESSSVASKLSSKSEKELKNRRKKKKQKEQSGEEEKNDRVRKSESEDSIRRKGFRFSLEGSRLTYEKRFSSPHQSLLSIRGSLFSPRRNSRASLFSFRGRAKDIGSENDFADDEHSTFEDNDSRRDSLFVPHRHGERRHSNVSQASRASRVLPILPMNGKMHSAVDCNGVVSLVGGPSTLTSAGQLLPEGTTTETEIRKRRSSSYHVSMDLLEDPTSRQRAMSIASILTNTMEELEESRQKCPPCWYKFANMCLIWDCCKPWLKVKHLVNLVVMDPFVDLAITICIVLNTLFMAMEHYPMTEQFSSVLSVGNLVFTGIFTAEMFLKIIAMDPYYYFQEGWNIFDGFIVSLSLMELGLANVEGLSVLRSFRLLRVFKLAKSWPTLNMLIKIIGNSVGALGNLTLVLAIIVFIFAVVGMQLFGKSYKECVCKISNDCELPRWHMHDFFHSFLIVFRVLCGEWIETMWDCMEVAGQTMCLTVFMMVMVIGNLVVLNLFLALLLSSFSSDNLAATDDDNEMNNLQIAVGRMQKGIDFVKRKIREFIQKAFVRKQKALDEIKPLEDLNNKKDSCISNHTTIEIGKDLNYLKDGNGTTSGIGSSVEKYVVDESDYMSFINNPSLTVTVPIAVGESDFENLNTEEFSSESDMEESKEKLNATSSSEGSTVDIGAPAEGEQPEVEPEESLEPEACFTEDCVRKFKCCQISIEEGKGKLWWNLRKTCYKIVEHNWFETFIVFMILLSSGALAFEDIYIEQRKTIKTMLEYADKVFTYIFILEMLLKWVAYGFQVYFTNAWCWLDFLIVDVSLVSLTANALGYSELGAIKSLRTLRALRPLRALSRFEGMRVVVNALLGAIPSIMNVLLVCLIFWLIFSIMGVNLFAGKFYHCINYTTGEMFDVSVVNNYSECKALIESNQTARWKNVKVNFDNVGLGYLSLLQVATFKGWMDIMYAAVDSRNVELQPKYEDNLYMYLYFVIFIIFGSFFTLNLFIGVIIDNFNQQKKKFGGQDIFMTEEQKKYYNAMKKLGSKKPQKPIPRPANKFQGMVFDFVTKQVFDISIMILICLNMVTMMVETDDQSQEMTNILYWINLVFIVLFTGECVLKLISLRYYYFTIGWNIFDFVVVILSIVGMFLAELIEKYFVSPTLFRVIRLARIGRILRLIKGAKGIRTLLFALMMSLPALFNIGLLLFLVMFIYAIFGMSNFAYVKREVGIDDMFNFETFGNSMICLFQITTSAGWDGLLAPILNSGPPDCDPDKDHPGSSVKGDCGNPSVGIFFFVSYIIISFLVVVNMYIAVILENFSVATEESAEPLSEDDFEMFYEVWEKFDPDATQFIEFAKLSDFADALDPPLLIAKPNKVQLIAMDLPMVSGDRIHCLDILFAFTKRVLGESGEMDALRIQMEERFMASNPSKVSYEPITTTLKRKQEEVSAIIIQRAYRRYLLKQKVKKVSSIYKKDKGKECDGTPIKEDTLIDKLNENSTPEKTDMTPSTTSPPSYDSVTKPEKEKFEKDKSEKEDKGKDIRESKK

| Compound | IC50 [2] [µM] | pKa [3] | logD [4] | IC50 [1] [µM] | inhibition in vivo at 20 mg/kg (Mus musculus) [%] |
| --- | --- | --- | --- | --- | --- |
| Cc1ccc(C(=O)N/C(N)=N\c2ccccc2C(C)C)cc1 | 4.36 |  |  | 4.5 |  |
| Cc1ccc(C(=O)NC(=N)NCCCc2ccccc2)cc1 | 6.03 |  |  | 5.25 |  |
| Cc1ccc(C(=O)NC(N)=Nc2cc(Br)ccc2Br)cc1 | > 25 |  |  |  |  |
| Cc1ccc(C(=O)NC(=N)Nc2ccc(OCc3ccccc3)cc2)cc1 | 10.1 |  |  |  |  |
| NC(=NCCCCc1ccccc1)NC(=O)c1ccc(Cl)c(Cl)c1 | 7.11 |  |  | 15.5 |  |
| Cc1ccc(C(=O)NC(=N)NCCc2cccs2)cc1 | 4.95 |  |  | 10.5 |  |
| N=C(NCCCCc1ccccc1)NC(=O)c1cccs1 | 4.31 |  |  | 2.35 |  |
| Cc1ccc(C(=O)NC(=N)N(C)c2cccc(I)c2)cc1 | 9.45 |  |  |  |  |
| NC(=NCCCCc1ccccc1)NC(=O)c1ccco1 | 13.8 |  |  | 7.9 | 5 |
| NC(=NCCCCc1ccccc1)NC(=O)c1c(Cl)cccc1Cl | 5.03 |  |  | 5.4 |  |
| Cc1ccc(C(=O)NC(=N)N2CCCc3ccc(C(F)(F)F)cc32)cc1 | > 25 |  |  |  |  |
| Cc1ccc(C(=O)NC(=N)Nc2ccc(C(C)(C)C)cc2)cc1 | > 24 |  |  |  |  |
| N=C(N)NC(=O)c1ccccc1 |  | 6.98 |  |  |  |
| Cc1ccc(C(=O)NC(N)=NCCCN(C)C)cc1 | > 25 |  |  |  |  |
| Cc1ccc(C(=O)NC(=N)N(C)Sc2cccc(C)c2)cc1 | 5.44 |  |  |  |  |
| COc1cccc2[nH]cc(CCN=C(N)NC(=O)c3ccc(C)cc3)c12 | 3.35 |  |  | 3.92 |  |
| Cc1ccc(C(=O)NC(=N)N2CCc3ccccc32)cc1 | 8.81 |  |  | > 100 | 16 |
| CCCC/N=C(/N)NC(=O)c1ccc(C)cc1 | 17.4 |  |  | 9 |  |
| N=C(N)N [GUANIDINE] |  | 12.6 |  |  |  |
| N=C(N)Nc1ccccc1 [PHENYLGUANIDINE] |  | 10.8 |  |  |  |

More lines, in order of falling IC50 [2], values ahead:

| IC50 [2] [µM] | pKa [3] | logD [4] | Compound | IC50 [1] [µM] | inhibition in vivo at 20 mg/kg (Mus musculus) [%] |
| --- | --- | --- | --- | --- | --- |
| 4.3 |  |  | NC(=NCCCCc1ccccc1)NC(=O)c1ccc(Cl)cc1 | 3.6 |  |
| 4.16 |  |  | CN=C(NCCCCc1ccccc1)NC(=O)c1ccc(C)cc1 | 9 |  |
| 3.9 |  |  | Cc1ccc(C(=O)NC(N)=NCCSCc2ccccc2)cc1 | 10.8 |  |
| 3.87 |  |  | Cc1ccc(C(=O)NC(N)=NCc2ccccc2)cc1 |  |  |
| 3.29 |  |  | Cc1ccc(C(=O)NC(=N)Nc2cccc3ccccc23)cc1 |  |  |
| 3.25 |  |  | NC(=NCCCCc1ccccc1)NC(=O)c1cc(Cl)ccc1Cl | 7.89 |  |
| 3.23 |  |  | Cc1ccc(C(=O)NC(N)=NCCOc2ccccc2)cc1 | 14.2 |  |
| 2.67 |  |  | Cc1ccc(C(=O)NC(N)=NCCCOc2ccccc2)cc1 | 5.6 | 54 |
| 2.66 |  |  | Cc1ccc(C(=O)NC(N)=NCCc2ccccc2)cc1 | 5.65 |  |
| 2.38 |  |  | Cc1ccc(C(=O)NC(N)=NCc2cccc3ccccc23)cc1 | 8.85 |  |
| 2.11 |  |  | Cc1ccc(C(=O)NC(=N)NCCCCCc2ccccc2)cc1 | 3.6 | 7 |
| 2.02 |  |  | Cc1ccc(C(=O)NC(=N)Nc2ccc(OC(C)C)cc2)cc1 | 5.75 |  |
| 1.97 |  |  | Cc1ccc(C(=O)NC(N)=NCCc2ccc(Cl)cc2)cc1 | 8.5 |  |
| 1.95 | 6.35 | 4.4 | Cc1ccc(C(=O)NC(=N)Nc2ccc(C(C)C)cc2)cc1 | 19.7 | 30 |
| 1.92 |  |  | COc1cc(NC(=N)NC(=O)c2ccc(C)cc2)cc(OC)c1OC | 24.4 |  |
| 1.76 |  |  | COc1ccc2[nH]cc(CCN=C(N)NC(=O)c3ccc(C)cc3)c2c1 | 1.76 |  |
| 1.48 |  |  | NC(=NCCCCc1ccccc1)NC(=O)c1cccc(Cl)c1Cl | 2.71 |  |
| 1.39 |  |  | COc1cc(C(=O)NC(N)=NCCCCc2ccccc2)cc(OC)c1OC | 1.51 |  |
| 1.2 |  |  | Cc1ccccc1C(=O)NC(N)=NCCCCc1ccccc1 | 1.75 | 53 |
| 1.14 | 7.09 |  | Cc1ccc(C(=O)NC(=N)NCCCCc2ccccc2)cc1 | 2.85 | 75 |
| 0.86 |  |  | NC(=NCCCCc1ccccc1)NC(=O)c1cccc2ccccc12 | 4.1 | 9 |
| 0.82 |  |  | COc1ccc(C(=O)NC(=N)NCCCCc2ccccc2)cc1 | 2.1 | 42 |
| 0.76 |  |  | CCOc1ccc(C(=O)NC(N)=NCCCCc2ccccc2)cc1 | 1.1 | 60 |
| 0.63 |  |  | CCCCOc1ccc(C(=O)NC(N)=NCCCCc2ccccc2)cc1 | 0.56 | 97 |
